Results: patent publication US20080070265A1, “PEPTIDE-BASED IMMUNIZATION THERAPY FOR TREATMENT OF ATHEROSCLEROSIS” (CARDIO VAX, priority 2003, published 2008)

System: apoE−/− mice
Assay: Immunization of apoE−/− mice with peptide in Freund's adjuvant; size of atherosclerotic lesions in the proximal aorta
Type: in vivo
Conditions: for effect of immunization on atherosclerosis: experimental animals (apoE−/− mice)
Procedure: It was hypothesized that the induction of protective immunity could depend on presentation of peptides derived from apoB100 and modified by adduct formation during oxidative modification of the LDL particle. Further, it was hypothesized that such peptides must have a sequence that (i) contains side chains susceptible to adduct formation, and (ii) permits them to bind to MHC class II molecules. The apoB100 sequence was analyzed to identify such motifs. […] A peptide containing this sequence was synthesized and used for immunization of apoE−/− mice. The effect on atherosclerosis was quantified by measuring the size of atherosclerotic lesions after 12 weeks.
8 week old female apoE−/− mice (B6, Apoe−/−, M&B, Ry, Denmark) were immunized with 100 μg of peptide SEQ. ID. NO. 1, and SEQ. ID. NO. 2, respectively, emulsified with Freund's complete adjuvant to a total volume of 50 μl. Mice were boosted after 2 and 4 weeks with 50 μg of peptide in Freund's incomplete adjuvant. A third group of mice consisting of age-matched male mice was injected according to the same scheme with phosphate-buffered saline (PBS) in adjuvant. 4 weeks after the last boost, mice were anesthetized with carbon dioxide and killed by exsanguination after cardiac puncture. After vascular perfusion with sterile RNase-free PBS, the heart and proximal aorta were removed, embedded in OCT compound, frozen and cryosectioned.
The size of atherosclerotic lesions in the proximal aorta was quantified by using Leica Qwin software (for details of the method, see Nicoletti et al., J. Clin. Invest. (1998)) Results were expressed as μm^2 average lesion area per cross-section, as well as relative lesion area, i.e., lesion area (μm^2) divided by total aortic cross-section area (μm^2). The Mann-Whitney U test used for comparisons between means.

Substance	lesion size versus control mice injected with PBS/adjuvant alone (apoE−/− mice, FIG. 1)	lesion size versus mice immunized with peptide SEQ. ID. NO. 2 (apoE−/− mice, FIG. 1)	effect of immunization on atherosclerosis	reduction in lesion size compared to PBS controls (female apoE−/− mice, 100 μg peptide in Freund's complete adjuvant, boosts of 50 μg after 2 and 4 weeks, proximal aorta, p<0.05) [%]	reduction in lesion size compared with peptide SEQ. ID. NO. 2 immunized mice (female apoE−/− mice, same immunization scheme, proximal aorta, p<0.001) [%]	lesions larger than PBS controls (female apoE−/− mice, same immunization scheme, proximal aorta, p<0.05) [%]
NH2-PTVMDFRKFSRNYQLYKSVSLPS-COOH (H-PTVMDFRKFSRNYQLYKSVSLPS-OH) [SEQ. ID. NO. 1, amino acids 625-647 of the human apoB100 protein]	significantly smaller lesions	significantly smaller	inhibition of atherosclerosis	42	62	
NH2-YSKVHNGSEILFSYFQDLVIT-COOH (H-YSKVHNGSEILFSYFQDLVIT-OH) [SEQ. ID. NO. 2]			aggravates atherosclerosis			36
